# Laboratory results as given in paper PMC13415033, “Pickering Emulsion Stabilized by Chitosan-Modified Saigae Tataricae Cornu Particles for Improving the Oxidative Stability and In Vivo Pharmacokinetics of Acorus tatarinowii Schott Volatile Oil” (Pharmaceuticals, 2026).
# Test: GC-MS analysis of volatile components after light exposure
# Format: physicochemical
# Settings: after 5 d of light exposure
# Procedure: Untreated ATVO, the physical mixture (10 mL ATVO, 10 mL distilled water, and 0.3 g MSTC mixed uniformly with a glass rod), and the MSTC-stabilized PE were each placed into flat weighing bottles (40 × 25 mm). The samples were stored in a light-stability chamber with a light intensity of 4500 ± 500 lx and a controlled temperature of 25 ± 0.5 °C. Aliquots were collected after 1, 3, and 5 days of light exposure. The physical mixture and PE groups were centrifuged (10,000 rpm, 10 min) to achieve phase separation prior to analysis. All assays were performed in triplicate, and the obtained samples were maintained at 4 °C until analyzed.Volatile oil retention rate (%) = Vt/V0 × 100%(2) The volatile components of ATVO were determined by gas chromatography-mass spectrometry (GC-MS) according to a previously reported method. Samples from each treatment group were prepared before analysis. Briefly, 100 μL of each volatile oil sample was transferred into a 10 mL volumetric flask. Then, 100 μL of n-docosane internal standard solution (10 mg·mL^−1) was added. The mixture was diluted to volume with n-hexane. […] It was then vortex-mixed and filtered through a 0.22 μm organic membrane filter. The filtrate was used for GC-MS analysis. […] Relative quantification was performed using n-docosane as the internal standard. […]
smiles,measurement,setting,value
"C=C/C(C)=C/CC=C(C)C [003779-61-1, (E)-3,7-dimethylocta-1,3,6-triene]",relative content of the component,PE group,well retained
same,relative content of the component,free ATVO (O) group implied,decreased to zero
